Data set [1] deals with differentiating ReNcell VM NPCs. Briefly: cells. Particulars: for IC50: Homo sapiens, ReNcell VM; for Normalized viability at Cmax, Differentiating, Mean ± SEM: human, 72 h. The method, then:
(§1) On-chip cultures of undifferentiated and 10-day differentiated NPCs were stamped with WellChips filled with compound-containing solutions and incubated for 72 hr prior to viability assessment. Vehicle-control normalized viabilities were plotted against compound concentration to generate dose-response plots (Figures 5A and S4). […] The sigmoidal fits for undifferentiated and differentiating NPCs were compared to assess whether differential sensitivities (i.e., different IC50 values) existed for the screened compounds.
(§2) Cell viability was determined in 3D on-chip cultures using a mammalian cell viability assay (LIVE/DEAD, Invitrogen). Prior to the assay, dead cell controls were prepared with 30 min incubation in a WellChip containing either […] 0.5% (w/v) saponin-DMEM/F12 medium in its microwells. […] After staining, PillarChips were rinsed twice with warm DPBS and incubated in DPBS containing 50 mM trehalose (Sigma) for 10 min before rapid drying with nitrogen and storage in the dark. Dried PillarChips were imaged with a Thermo Scientific Cellomics ArrayScan VTI high-content system.
(§3) Undifferentiated and differentiated microchip cultures were prepared as described above. Chemicals were purchased from Sigma or the NIH Small Molecule Repository (Table S2). Concentrated stocks were prepared and diluted into ReNcell Maintenance Medium to prepare the highest screened concentration solution for each compound. Four-fold serial dilutions were made in ReNcell Maintenance Medium, with all solutions having a final concentration of 0.5% or 1% DMSO (v/v) and 20 μg/mL Matrigel. For undifferentiated cultures, the solutions also contained 20 ng/mL of EGF and FGF2. These solutions were printed into WellChips, covered with a gas-permeable membrane, and warmed at 37°C for at least 5 min before stamping with cells. Each WellChip contained six compounds each at six concentrations (n = 10 biological replicates for each concentration) and the appropriate medium containing 0.5% or 1% DMSO for vehicle and dead controls (n = 32 biological replicates per control). PillarChip cultures were incubated with compounds for 72 hr with daily medium exchange to freshly prepared WellChips containing compounds at the appropriate concentrations. […] On-chip toxicity screens were repeated three times for undifferentiated and differentiated cultures. […]

Data set [2] relates to undifferentiated ReNcell VM NPCs. Briefly: cells. Particulars: for IC50: Homo sapiens, ReNcell VM; for IC50 / Normalized viability at Cmax, Undifferentiated, Mean ± SEM: 72 h; for Normalized viability at Cmax, Undifferentiated, Mean ± SEM: human. Here is the method: as §1, §2, §3
Data set [3] has the same test system. Briefly: On-chip proliferation assay (EdU incorporation), undifferentiated NPCs. Particulars: Homo sapiens, ReNcell VM, undifferentiated, 72 hr exposure, EdU for the final 24 hr, sigmoidal fit. It is filed as cell-based, human. The text has this: (§4) Differential toxic effects could be explained, in part, as a consequence of the different proliferative states between the undifferentiated and differentiating NPCs. To this end, the thymidine analog, 5-ethynyl-2′-deoxyuridine (EdU), was used to detect actively proliferating cells on-chip following exposure to compounds or vehicle control to determine dose-response effects on proliferation (Figures 5B and S5), and sigmoidal curves were fit, when appropriate, to obtain IC50 values (Table 1). We found ∼60% of undifferentiated NPCs incorporated EdU over a 24-hr period as opposed to ∼3% of differentiating cultures.
(§5) Undifferentiated and differentiating cultures were screened for toxicity as described previously, except that after the first 48 hr of exposure 10 μM EdU (Click-iT EdU, Invitrogen) was added to the compound-containing medium for the final 24 hr. After 72 hr, on-chip cultures were fixed and processed as described previously for on-chip immunofluorescence; however, instead of antibody staining the cultures were incubated with solution containing Alexa Fluor 488-azide for 30 min as specified in the product manual. Cultures were then rinsed with DPBS for 30 min, incubated in DPBS with Hoechst 33342 (5 μg/mL) for 30 min, and washed in DPBS for 30 min before proceeding with a trehalose wash and drying as described previously. Nuclei were selected using Cellomics software from blue channel images to create a mask, which was used for identification of fluorescently labeled EdU in the green channel for quantification of actively proliferating cells over the 24-hr EdU exposure.

In data set [4] the test system is differentiating ReNcell VM NPCs. Briefly: cells. Particulars: Homo sapiens, ReNcell VM, differentiating, 72 hr exposure, EdU for the final 24 hr, sigmoidal fit. It is filed as cell-based, human.
Source text: as §4, §5

[5] abbreviates: read-out: Viability Effects Differentiating IC50.
Setting [6] is: read-out: Viability Effects Differentiating log(IC50 ± SEM) (converted).
[7] abbreviates: read-out: Viability Effects Undifferentiated IC50.
[8] abbreviates: read-out: Viability Effects Undifferentiated log(IC50 ± SEM) (converted).
The mark [9] stands for this setting: read-out: Proliferation Effects Undifferentiating log(IC50 ± SEM) (converted).
[10] abbreviates: read-out: Proliferation Effects Differentiating log(IC50 ± SEM) (converted).

Molecules are shown by their SMILES. Read-outs that look alike come from different tables or passages of the source.

Consider `CC(=O)Nc1ccc(O)cc1` [Acetaminophen], for which the IC50 in data set [1] (setting [5]) was 18000 µM; in data set [1] (setting [6]), 20000 µM; in data set [2] (setting [7]), 1400 µM; in data set [2] (setting [8]), 1260 µM; in data set [3] (read-out: Proliferation Effects Undifferentiating IC50) it was 1000 µM; in data set [3] (setting [9]), 1040 µM. Also, the IC50 in data set [4] (read-out: Proliferation Effects Differentiating IC50) and in data set [4] (setting [10]) was 18200 µM in each case. Moreover, the “Normalized viability at Cmax, Differentiating, Mean ± SEM” value in data set [1] is listed as -0.1 ± 0.03. For the same molecule, in data set [2], the “Cytotoxicity (in words)” value was “no cytotoxicity at functionally relevant concentrations”. The “Normalized viability at Cmax, Undifferentiated, Mean ± SEM” value in data set [2] was -0.16 ± 0.07.

Consider `COc1cccc2c1C(=O)c1c(O)c3c(c(O)c1C2=O)C[C@@](O)(C(=O)CO)C[C@@H]3O[C@H]1C[C@H](N)[C@H](O)[C@H](C)O1` [Doxorubicin], for which the IC50 was 2.7 µM in data set [1] (setting [5]); 2.75 µM in data set [1] (setting [6]); 0.8 µM in data set [2] (setting [7]); 0.794 µM in data set [2] (setting [8]); less than 0.1 µM in data set [3] (setting [9]); less than 0.1 µM in data set [4] (setting [10]). Also, in data set [1], the “Normalized viability at Cmax, Differentiating, Mean ± SEM” value came out at 0.11 ± 0.16. In addition, in data set [2], the “Normalized viability at Cmax, Undifferentiated, Mean ± SEM” value came out at 0.05 ± 0.13.

For the origin of these results see publication PMC5106528, “High-Throughput Toxicity and Phenotypic Screening of 3D Human Neural Progenitor Cell Cultures on a Microarray Chip Platform” (Stem Cell Reports, 2016).
